Source: patent US12564598B2, “Nitric oxide-sensitive hydrogel” (POSTECH RESEARCH AND BUSINESS DEVELOPMENT FOUNDATION, priority 2021, dated 2026)

Assay: Degradation of crosslinking agent after incubation in saturated NO solution (1H NMR, FT-IR, UV-Vis)
Type: physicochemical
Conditions: incubation in a saturated NO solution; primary amine peak disappeared, benzotriazole formed
Description: The mechanism by which the above synthesized crosslinking agent DA-NOCCL reacts with nitric oxide to degrade and the ^1H NMR, FT-IR, and UV-Vis absorption data confirming this are shown in FIGS. 4 and 5.

degradation in response to NO: can be degraded in response to NO
Structure (SMILES): C#CCCC(=O)Nc1ccc(NC(=O)CCC#C)c(N)c1 [DA-NOCCL]
